Source: publication PMC11172478, “1,3,5-Triazine as Branching Connector for the Construction of Novel Antimicrobial Peptide Dendrimers: Synthesis and Biological Characterization” (International Journal of Molecular Sciences, 2024)
Residues, ends and D or L forms follow the SMILES beside them. *: point of attachment. βNA = c1ccc2cc(N*)ccc2c1

Assays:
P. aeruginosa 666 SJD = test: Intracellular accumulation of acridine orange; format: cell-based; conditions: PaβN 20 µg/mL, AO 0.25 µg/mL, 30 min, fluorescence
Method: (§1) The assay was performed as previously described by Armengol et al. including control and clinical strains (E. coli 208691 and P. aeruginosa 666 SJD) previously studied by our group. Briefly, 96-well flat-bottomed microtiter plates (Guangzhou Jet Bio-Filtration Co., Ltd., Mianyang, China) were used. Overnight cultures were diluted in 1/4 Ringer’s solution to an OD520nm of 1.5, and 100 µL was added to the wells previously filled with 100 µL of Ringer’s solution. Acridine Orange (AO) was added to a final concentration of 0.25 µg/mL. The inoculated plates were then incubated for 30 min with shaking, after which the fluorescence was measured in a FLUOstar OPTIMA fluorescence microplate reader (BMG Labtech, Ortenberg, Germany).
(§2) To determine the uptake and accumulation of AO by bacteria, different scenarios were compared. First, bacteria were examined in the presence of PAβN at 20 µg/mL, and then in the presence of different concentrations of the dendrimers at (MIC, ½ MIC, ¼ MIC). The results in each condition were expressed as the percentage increase in fluorescence with respect to the control.

P. aeruginosa ATCC 27853 [1] = test: Intracellular accumulation of acridine orange; format: cell-based
Method: as §1, §2

E. coli 208691 = test: Intracellular accumulation of acridine orange; format: cell-based; conditions: AO 0.25 µg/mL, 30 min
Method: as §1, §2

E. coli ATCC 25922 [2] = format: cell-based
Method: (§3) The real-time effect of the peptide dendrimers was examined on the growth curves of E. coli ATCC 25922 and P. aeruginosa ATCC 27853. Volumes of 10 mL of TSB liquid cultures containing 1–5 × 10^5 CFU/mL in the logarithmic phase were adjusted in Falcon tubes. Peptide dendrimers were then added at MIC and sub-inhibitory concentrations (½ MIC and ¼ MIC). Incubation was performed in RTS-1C real-time reverse spin bioreactors RTS-1 (Biosan) for 24 h at 37 °C and 2000 rpm. Growth was measured noninvasively as optical density (OD 850 nm) every 15 min.

E. coli ATCC 25922 [3] = test: Atomic force microscopy of treated bacteria; format: cell-based; conditions: E. coli ATCC 25922, dendrimer at MIC, 4 h, 37 °C
Method: E. coli ATCC 25922 was grown at 37 °C in Mueller Hinton cation-adjusted broth to an optical density of 0.25 at 625 nm. Dendrimers were added to a starting inoculum of 10^6 CFU/mL and incubated for 4 h at 37 °C with shaking. Untreated E. coli was included as a control. Cells in 1 mL of culture were centrifuged at 5000 rpm for 5 min and washed three times with 1 mL of sterile water. The bacterial cells were then resuspended in 100 µL of sterile water and a 10 µL drop was applied to a freshly cleaved mica surface and allowed to dry for approximately 10 min at room temperature.
The disk surfaces were analyzed by atomic force microscopy using an AFM XE-70 (Park Systems, Suwon, Korea) in non-contact mode with an ACTA 10M cantilever. […] The AFM images were processed using a scanning probe image processor XEI (Park Systems), correcting the plane of the AFM image for any coupling of the lateral plane and the z-axis caused by the instrument.

E. coli ATCC 25922 [4] = format: cell-based; conditions: broth microdilution, MHBCA, 24 h, 37 °C, visual turbidity
Method: (§4) The antimicrobial activity of the dendrimers was evaluated against E. coli ATCC 25922, P. aeruginosa ATCC 27853 and S. aureus ATCC 29213 strains. The MIC values were determined by the broth microdilution method. Briefly, the different strains were grown in Muller Hinton broth cation adjusted (MHBCA) medium overnight at 37 °C with shaking at 200 rpm. The bacterial cultures were then adjusted to OD625nm of 0.08–0.1, and 5 μL of each diluted suspension was added to 96-well plates previously filled with MHBCA and serially diluted peptides. Plates were incubated for 24 h at 37 °C. Finally, the MIC was determined macroscopically, based on the visual turbidity of the wells.

S. aureus ATCC 29213 = format: cell-based; conditions: broth microdilution, MHBCA, 24 h, 37 °C, visual turbidity
Method: as §4

P. aeruginosa ATCC 27853 [5] = format: cell-based; conditions: broth microdilution, MHBCA, 24 h, 37 °C, visual turbidity
Method: as §4

[6] = Black lipid bilayers conductance; conditions: DiPhPC/PS 4:1 in n-decane, 1 M KCl, −80, −120 and −180 mV
Method: The basic methods have been described previously. Membranes were prepared from 1% lipid a mixture of di-phytanoyl-phosphatidylcholine/di-phytanoylphosphatidylserine (DiPhPC/PS) in a molar ratio of 4:1 in n-decane (Avanti Polar Lipids, Delfzyl, The Netherlands). Bilayers were painted over a 2 mm^2 hole in a Teflon divider separating two compartments containing 5 mL each of a bathing solution of 1MKCl. Voltages were applied across the membrane via calomel electrodes connected by a salt bridge. The resultant current was amplified 10^8-fold by a current amplifier and recorded on a Rikadenski chart recorder. A concentration of 1 μg/mL of the dendrimer was used based on the results of Wu et al..

P. aeruginosa ATCC 27853 [7] = test: Bacterial growth curves; format: cell-based; conditions: P. aeruginosa ATCC 27853, TSB, MIC, ½ MIC and ¼ MIC, 24 h, 37 °C, OD 850 nm
Method: as §3

P. aeruginosa ATCC 27853 [8] = test: Time-kill curves; format: cell-based; conditions: P. aeruginosa ATCC 27853, ½ MIC
Method: The death kinetics of the active dendrimers were examined by plotting their time-kill curves against E. coli ATCC 25922 and P. aeruginosa ATCC 27853. The dendrimers were added to a starting bacterial inoculum of 10^6 CFU/mL in 5 mL of MHBCA medium. Dendrimers were tested at three different concentrations: MIC, ½ MIC and ¼ MIC. They were incubated for 24 h at 37 °C with shaking at 200 rpm. Samples were aseptically collected at 0, 1, 2, 4 and 6 h, serially diluted in Ringer ¼ and plated on Tryptone soy agar for colony counting.
The response of the microbial strains to the dendrimers was determined based on a logarithmic decrease in viable bacteria. A compound was considered active if it caused a reduction of ≥1 log10 CFU/mL, compared to the corresponding counts at time 0 h. In addition, a dendrimer was considered bactericidal if it caused a reduction of ≥3 log10 CFU/mL [40].

## NC(N)=NCCC[C@H](NC(=O)[C@@H](N)Cc1ccccc1)C(=O)Nc1ccc2ccccc2c1 [PaβN, reference compound] (H-Phe-Arg-βNA)
P. aeruginosa 666 SJD
  AO accumulation (untreated control = 100%): ≥ 140%
P. aeruginosa ATCC 27853 [1]; susceptible strains, PaβN 20 µg/mL
  changes in AO accumulation by susceptible strains (in words): almost negligible
E. coli 208691; E. coli 208691, PaβN 20 µg/mL, fluorescence
  AO accumulation (untreated control = 100%): ≥ 140%

## H-[(LK)3-EDA]4-(TA-EDA)2-TA-(LK)3-NH2 [Dendrimer 3]
E. coli ATCC 25922 [2]; E. coli ATCC 25922, TSB, MIC, ½ MIC and ¼ MIC, 24 h, 37 °C, OD 850 nm
  effect on growth curve (in words): inhibited the growth at the MIC and ½ MIC
E. coli ATCC 25922 [2]; E. coli ATCC 25922, at concentrations lower than ½ MIC
  delay in the onset of detectable turbidity: 10 h
E. coli ATCC 25922 [2]; E. coli ATCC 25922, at ¼ MIC
  prolongation of lag phase: 6 h
E. coli ATCC 25922 [2]; E. coli ATCC 25922, growth curves, 24 h
  concentration that completely inhibited detectable growth: 4 µg/mL
E. coli ATCC 25922 [3]
  bacterial surface alteration by AFM (in words): significant surface damages
P. aeruginosa ATCC 27853 [1]; P. aeruginosa ATCC 27853, dendrimers at MIC
  AO accumulation (in words): slight increase in AO accumulation
E. coli 208691; E. coli 208691, dendrimers at MIC, ½ MIC, ¼ MIC
  AO accumulation (in words): increase in the AO accumulation with clear differences between the MIC, ½ MIC and ¼ MIC
E. coli ATCC 25922 [4]
  MIC E. coli ATCC 25922: 8 mg/L
S. aureus ATCC 29213
  MIC S. aureus ATCC 29213: >64 mg/L
P. aeruginosa ATCC 27853 [5]
  MIC P. aeruginosa ATCC 27853: 32 mg/L
[6]
  channel formation in planar lipid bilayers (conductance): did not induce membrane channels
P. aeruginosa ATCC 27853 [7]
  effect on growth curve (in words): complete growth inhibition occurred at the MIC
P. aeruginosa ATCC 27853 [8]
  time-kill activity at ½ MIC (in words): higher antimicrobial activity than dendrimer 1
